Assay results from patent US4684748A, “Anticonvulsant agents” (Eli Lilly and Company, priority 1985, dated 1987).
Where a name gives a salt, the structure may show the parent alone.

system: seizures; experiment: not given; conditions: man; cited from earlier work

**Q.** Which “plasma level at which seizures are controlled” value does the source give for `O=C1NC(=O)C(c2ccccc2)(c2ccccc2)N1` [phenytoin] here?
**A.** 10 µg/mL

system: tonic extensor seizures elicited by maximal electroshock; experiment: electroshock induced convulsion inhibition assay (E.S.); assay type: in vivo, Cox standard strain albino male mice; conditions: Mus musculus; oral dose (gavage), mice, 0.1 second 50 milliampere corneal electroshock; at the time after dosing providing an optimal response
From the text: The compounds of Formula I are anticonvulsant agents with a high therpeutic ratio and long half-life and are therefore useful in the treatment and prevention of convulsions in mammals. […] The compounds are effective against tonic extensor seizures elicited by maximal electroshock and should therefore be useful for treating generalized tonic-clonic ("grand mal"), cortical focal, complex partial (temporal lobe epilepsy), simple partial (focal moor), and post-traumatic seizures in humans. […] In the electroshock induced convulsion inhibition assay (E.S.), the compound to be tested was suspended in acacia and administered by gavage to each of ten Cox standard strain albino male mice (18-24 g) at the dose level being investigated. […] The animals were examined and evaluated immediately after the electroshock for the occurrence of clonic, flexor tonic, or extensor tonic convulsions, or death and the ED50 was determined for each compound as the dose which inhibited the occurrence of extensor tonic convulsions in one half of the animals immediately after the electroshock. For comparison, 18 milliamperes was usually sufficient to produce extensor tonic convulsions in about half of the control animals; at 50 milliamperes, almost all control animals (receiving vehicle only) […]. The test results summarized in Table I are reported as the ED50 values at the time interval found to provide an optimal response after dosing.

**Q.** Which ED50 does the source give for `Cc1cc(C(=O)NC(C)c2ccccc2)ccc1N` (racemic) [Example 12, (R,S)-4-amino-3-methyl-N-(1-phenylethyl)benzamide hydrochloride] here?
**A.** 20 mg/kg

**Q.** Which ED50 does the source give for `Cc1cc(C(=O)NC(C)c2ccccc2)cc(C)c1N` (racemic) [Example 22, (R,S)-4-amino-3,5-dimethyl-N-(1-phenylethyl)benzamide] here?
**A.** 26.7 mg/kg

**Q.** For `Cc1ccccc1CNC(=O)c1cc(C)c(N)c(C)c1` [Example 13, 4-Amino-3,5-dimethyl-N-[(2-methylphenyl)methyl]benzamide], which ED50 is on record?
**A.** 20 mg/kg

**Q.** For `Cc1cc(C(=O)Nc2c(C)cccc2C)ccc1N` [Example 14, 4-Amino-N-(2,6-dimethylphenyl)-3-methylbenzamide], which ED50 is on record?
**A.** 3.8 mg/kg

**Q.** Which ED50 does the source give for `Cc1cc(C(=O)Nc2c(C)cccc2C)cc(C)c1N` [Example 15, 4-Amino-N-(2,6-dimethylphenyl)-3,5-dimethylbenzamide] here?
**A.** 5.6 mg/kg

**Q.** Which ED50 does the source give for `Cc1cc(C(=O)Nc2ccccc2C)ccc1N` [Example 16, 4-Amino-3-methyl-N-(2-methylphenyl)benzamide] here?
**A.** 5.4 mg/kg

**Q.** Which ED50 does the source give for `Cc1cc(C(=O)NCc2ccccc2)cc(C)c1N` [Example 17, 4-Amino-3,5-dimethyl-N-benzylbenzamide] here?
**A.** 75 mg/kg

**Q.** With `Cc1cc(C(=O)NCc2ccccc2C)ccc1N` [Example 18, 4-Amino-3-methyl-N-(2-methylbenzyl)benzamide] as the compound, how does the ED50 read?
**A.** 16.3 mg/kg

**Q.** For `Cc1cc(C(=O)NCc2ccccc2)ccc1N.Cl` [Example 19, 4-Amino-3-methyl-N-benzylbenzamide hydrochloride], which ED50 is on record?
**A.** 9.6 mg/kg

**Q.** With `Cc1cc(C(=O)N[C@H](C)c2ccccc2)cc(C)c1N` [Example 20, (R)-4-amino-3,5-dimethyl-N-(1-phenylethyl)benzamide] as the compound, how does the ED50 read?
**A.** 46.8 mg/kg

**Q.** Which ED50 does the source give for `Cc1cc(C(=O)N[C@@H](C)c2ccccc2)cc(C)c1N` [Example 21, (S)-4-amino-3,5-dimethyl-N-(1-phenylethyl)benzamide] here?
**A.** 60.5 mg/kg
